Test results reported in ChEMBL document CHEMBL1146902, “Antifungal anthraquinones from Saprosma fragrans” (2006).
Converted amounts (≈) assume the structure as drawn.

How the values were obtained:
Candida albicans = assay: Antifungal activity against Candida albicans; assay type: functional
Cryptococcus neoformans = assay: Antifungal activity against Cryptococcus neoformans; assay type: functional
Sporothrix schenckii = assay: Antifungal activity against Sporothrix schenckii; assay type: functional
Trichophyton benhamiae = assay: Antifungal activity against Trichophyton mentagrophytes; assay type: functional, Arthroderma benhamiae
Aspergillus fumigatus = assay: Antifungal activity against Aspergillus fumigatus; assay type: functional

Row | MIC (Candida albicans) [µg/mL] | MIC (Cryptococcus neoformans) [µg/mL] | MIC (Sporothrix schenckii) [µg/mL] | MIC (Trichophyton benhamiae) [µg/mL] | MIC (Aspergillus fumigatus) [µg/mL] | Structure (SMILES)
1 | 50 (≈ 168 µM) | 50 (≈ 168 µM) | 25 (≈ 83.8 µM) | 12.5 (≈ 41.9 µM) | > 100 | COc1c(C=O)c(O)c(O)c2c1C(=O)c1ccccc1C2=O
2 | 3.1 (≈ 8.99 µM) | 0.09 (≈ 0.261 µM) | 1.56 (≈ 4.52 µM) | 0.39 (≈ 1.13 µM) | 1.56 (≈ 4.52 µM) | Clc1ccccc1C(c1ccccc1)(c1ccccc1)n1ccnc1 [CLOTRIMAZOLE]
3 | 50 (≈ 177 µM) | 12.5 (≈ 44.3 µM) | 6.25 (≈ 22.1 µM) | 1.56 (≈ 5.53 µM) | 50 (≈ 177 µM) | COc1c(C=O)c(O)cc2c1C(=O)c1ccccc1C2=O [DAMNACANTHAL]
